The C3SDB collision cross section collection

How the values were obtained:
[1] = instrument: TW, calibrated with polyalanine
[2] = instrument: DT, stepped-field
[3] = instrument: TW, calibrated with phosphatidylcholines (ESI+) and phosphatidylethanolamines (ESI-)
[4] = instrument: DT, single field, calibrated with Agilent tune mix (Agilent)
[5] = [M+H]+; instrument: DT; stepped-field

## COc1cc2c(c3oc(=O)c4c(c13)CCC4=O)[C@@H]1CCO[C@@H]1O2 [Aflatoxin B2]
[1]; [M+H]+
  collision cross section (N2): 162 Å²
[1]; [M+K]+
  collision cross section (N2): 181.4 Å²
[1]; [M+Na]+
  collision cross section (N2): 176.8 Å²

## CC[C@H](C)[C@H](NC(=O)[C@H](Cc1ccc(O)cc1)NC(=O)[C@@H](NC(=O)[C@H](CCCN=C(N)N)NC(=O)[C@@H](N)CC(=O)O)C(C)C)C(=O)N[C@@H](Cc1cnc[nH]1)C(=O)N1CCC[C@H]1C(=O)N[C@@H](Cc1ccccc1)C(=O)N[C@@H](Cc1cnc[nH]1)C(=O)N[C@@H](CC(C)C)C(=O)O [Angiotensin I]
[2]; [M+2H]2+
  collision cross section (N2): 387.3 Å²
[2]; [M+3H]3+
  collision cross section (N2): 474.71 Å²
[2]; [M+4H]4+
  collision cross section (N2): 549.24 Å²
[2]; [M+H]+
  collision cross section (N2): 357.31 Å²

## CCCCC/C=C\C/C=C\C/C=C\C/C=C\CCCC(=O)O [Arachidonic acid]
[2]; [M-H]-
  collision cross section (N2): 183.66 Å²

## NC(N)=NCCC[C@H](NC(=O)[C@H](Cc1ccccc1)NC(=O)[C@@H]1CCCN1C(=O)[C@H](CO)NC(=O)[C@H](Cc1ccccc1)NC(=O)CNC(=O)[C@@H]1CCCN1C(=O)[C@@H]1CCCN1C(=O)[C@@H](N)CCCN=C(N)N)C(=O)O [Bradykinin]
[2]; [M+2H]2+
  collision cross section (N2): 343.33 Å²
[2]; [M+3H]3+
  collision cross section (N2): 447.61 Å²
[2]; [M+H]+
  collision cross section (N2): 315.25 Å²

## CCCCCCCCCCCCCCC(=O)OC[C@H](CO[C@@H]1O[C@H](CO[C@H]2O[C@H](CO)[C@H](O)C(O)C2O)[C@H](O)C(O)C1O)OC(=O)CCCCCCCCCCCCCC (some centres undefined) [DGDG(30:0)]
[3]; [M+NH4]+
  collision cross section (N2): 302.4 Å²
[3]; [M+Na]+
  collision cross section (N2): 299.6 Å²

## CCCCCCCCCCCCC=CCC(=O)OC[C@H](CO[C@@H]1O[C@H](CO[C@H]2O[C@H](CO)[C@H](O)C(O)C2O)[C@H](O)C(O)C1O)OC(=O)CC=CCCCCCCCCCCCC (some centres undefined) [DGDG(32:2)]
[3]; [M+NH4]+
  collision cross section (N2): 302.2 Å²
[3]; [M+Na]+
  collision cross section (N2): 298 Å²

## CCCCCCCCCCCCCCCCC(=O)OC[C@H](CO[C@@H]1O[C@H](CO[C@H]2O[C@H](CO)[C@H](O)C(O)C2O)[C@H](O)C(O)C1O)OC(=O)CCCCCCCCCCCCCCCC (some centres undefined) [DGDG(34:0)]
[3]; [M+NH4]+
  collision cross section (N2): 314.2 Å²
[3]; [M+Na]+
  collision cross section (N2): 311.8 Å²

## CCCCCCCCCCCCCCC=CCC(=O)OC[C@H](CO[C@@H]1O[C@H](CO[C@H]2O[C@H](CO)[C@H](O)C(O)C2O)[C@H](O)C(O)C1O)OC(=O)CC=CCCCCCCCCCCCCCC (some centres undefined) [DGDG(36:2)]
[3]; [M+K]+
  collision cross section (N2): 315.3 Å²
[3]; [M+NH4]+
  collision cross section (N2): 315.2 Å²
[3]; [M+Na]+
  collision cross section (N2): 312.4 Å²

## CCCCCCCCCCCCCCCCCCCC(=O)O [Eicosanoic acid]
[2]; [M-H]-
  collision cross section (N2): 186.17 Å²

## N[C@@H](CSSC[C@H](N)C(=O)O)C(=O)O [L-Cystine]
[4]; [M+H]+
  collision cross section (N2): 149.4 Å²
[2]; [M+H]+
  collision cross section (N2): 150.08 Å²
[2]; [M+Na]+
  collision cross section (N2): 151.81 Å²
[2]; [M-H]-
  collision cross section (N2): 144.39 Å²

## N[C@@H](CCC(=O)O)C(=O)O [L-Glutamate]
[2]; [M-H]-
  collision cross section (N2): 125.65 Å²

## N[C@@H](Cc1cnc[nH]1)C(=O)O [L-Histidine]
[5]
  collision cross section (N2): 132.41 Å²
[4]; [M+H]+
  collision cross section (N2): 131.9 Å²
[2]; [M+H]+
  collision cross section (N2): 132.74 Å²
[2]; [M+Na]+
  collision cross section (N2): 135.48 Å²
[2]; [M-H]-
  collision cross section (N2): 130.01 Å²

## CC(C)C[C@H](N)C(=O)O [L-Leucine]
[5]
  collision cross section (N2): 135.16 Å²
[2]; [M+H]+
  collision cross section (N2): 135.56 Å²
[2]; [M-H]-
  collision cross section (N2): 132.51 Å²

## O=C(O)[C@@H]1CCCN1 [L-Proline]
[5]
  collision cross section (N2): 126.48 Å²
[4]; [M+H]+
  collision cross section (N2): 125.1 Å²
[2]; [M+H]+
  collision cross section (N2): 126.22 Å²

## CCCCCCCCCCCCCCCCCCCCCCCC(=O)O [Lignoceric acid]
[2]; [M-H]-
  collision cross section (N2): 201.11 Å²

## CCCCC/C=C\C/C=C\CCCCCCCC(=O)O [Linoleic acid]
[4]; [M-H]-
  collision cross section (N2): 173.24 Å²
[2]; [M-H]-
  collision cross section (N2): 175.69 Å²

## CC/C=C\C/C=C\C/C=C\CCCCCCCC(=O)O [Linolenic acid]
[2]; [M-H]-
  collision cross section (N2): 174.88 Å²

## CCCCCCCCCCCCCCCCCC(=O)OC(COC(=O)CCCCCCCCCCCCCC)COP(=O)([O-])OCC(O)COC(=O)C(N)CCCC[NH3+] (centres undefined) [LysPG(33:0)]
[3]; [M+H]+
  collision cross section (N2): 299.8 Å²

## CCCCCC/C=C/CCCCCCCCCC(=O)OCC(COP(=O)([O-])OCC(O)COC(=O)C(N)CCCC[NH3+])OC(=O)CCCCCCCCCCCCCCC (centres undefined) [LysPG(34:1)]
[3]; [M+H]+
  collision cross section (N2): 299.6 Å²

## CCCCCC/C=C\CCCCCCCCCC(=O)OCC(COP(=O)([O-])OCC(O)COC(=O)C(N)CCCC[NH3+])OC(=O)CCCCCCCC/C=C\CCCCCC (centres undefined) [LysPG(35:2)]
[3]; [M+H]+
  collision cross section (N2): 300.8 Å²
